Data taken from ChEMBL document CHEMBL3507680, “University of Dundee, Gates Library screen for HepG2 cell viability”.

Experiment: Human HepG2 cell viability assay in 384 well format
Format: toxicity, cell-based
Parameters: dose 125 nL, time 70.5 hour; concentration not given beside the values
Conditions: HepG2 cells, read-out: Inhibition

First: CN(CC(N)=O)C(=O)c1cn(-c2ccc(Br)cc2)cn1
Second: CC(CO)N(C)C(=O)c1cn(-c2ccc(Br)cc2)cn1 (centres undefined)
The cytotoxicity at 70.5 h of the first is higher: 23.1% for the first, -7.34% for the second.

Compared with `CS(=O)(=O)CC1(CNc2ccc(C#N)c(C(F)(F)F)c2)CC1`, `O=C(O)c1ccc(S(=O)(=O)Nc2ccccc2CC(F)(F)F)c(F)c1` is lower in cytotoxicity at 70.5 h: -3.35% for the first, -15.6% for the second.

Going from `Cc1nc(CC(C)C)sc1C(=O)N1CCC(C2(C)OCCO2)CC1` to `Cc1nc(CC(C)C)sc1C(=O)N1CCC1`, the cytotoxicity at 70.5 h falls from 2.11% to -2.02%.

Compared with `CC(C)c1nc(CNc2ccc(CNS(C)(=O)=O)cc2)cs1`, `CC1(C)CN(Cc2csc(CS(C)(=O)=O)n2)Cc2ccccc21` is higher in cytotoxicity at 70.5 h: -8.66% for the first, -0.447% for the second.

Going from `CC(=O)N1CCN(CCNc2ncc(Br)cc2C)CC1` to `CC(C)(C)c1ncc(C(=O)N2CCN(C(=O)c3ccc[nH]3)CC2)c(O)n1`, the cytotoxicity at 70.5 h falls from -1.98% to -2.76%.

Going from `CCOCC(=O)Nc1ncn(Cc2cccc(Br)c2)n1` to `CCC(NC(=O)c1cc(CC(C)C)nn1C)c1cccc(C)n1` (centres undefined), the cytotoxicity at 70.5 h falls from 17.2% to 8.39%.

First: Cc1nn(C)c(Oc2cccc(F)c2)c1NC(=O)C1CCCO1 (centres undefined)
Second: COCC1CN(C(=O)Cc2cccc(F)c2)Cc2ccnn2C1 (centres undefined)
The cytotoxicity at 70.5 h of the first is lower: -6.09% for the first, -5.69% for the second.

First: CCOCc1ccccc1NC(=O)NC1CCN(C(=O)OCC)CC1
Second: CCOCc1ccccc1NC(=O)NC1CCN(CC(F)(F)F)C1 (centres undefined)
The cytotoxicity at 70.5 h of the first is higher: -5.57% for the first, -6.42% for the second.

Going from `CCOCc1ccccc1NC(=O)NC1CCN(c2ccccc2)C1` (centres undefined) to `CCOCc1ccccc1NC(=O)NC1CCN(C2CCCC2)C1` (centres undefined), the cytotoxicity at 70.5 h falls from -4.36% to -6.21%.

Compared with `CS(=O)(=O)Cc1nc(CN2CCc3ccccc3CC2)cs1`, `Cc1nc(CN2CCc3ncnc(-c4ccsc4)c3CC2)cs1` is lower in cytotoxicity at 70.5 h: 5.16% for the first, -9.47% for the second.

Going from `Cc1cc(Cl)c2c(c1)C1(NC(=O)c3cccnc3N1)C(=O)N2` (centres undefined) to `Cc1cncc(C(=O)N2CCC3(CC2)NC(=O)CC3c2ccccc2)c1` (centres undefined), the cytotoxicity at 70.5 h rises from -1.82% to 17.7%.

First: NC(=O)C1(CNCc2csc(-c3cccs3)n2)CCOCC1
Second: CSC1(CNC(=O)N(C)Cc2ccc(Cl)s2)CCOCC1
The cytotoxicity at 70.5 h of the first is lower: -6.81% for the first, 30.6% for the second.

First: O=C(NCc1nnc2n1CCCCC2)N1CCC2(CCCCC2)C1
Second: Cc1ccc(CN2CCCC(c3nnc(CN4CCCCC4)n3C)C2)s1 (centres undefined)
The cytotoxicity at 70.5 h of the first is lower: -6.29% for the first, 4.84% for the second.

Compared with `CCN(C(=O)CCn1cccn1)C1CC1`, `CCC(C(=O)NC1CCN(S(C)(=O)=O)CC1)n1cccn1` (centres undefined) is lower in cytotoxicity at 70.5 h: -5.79% for the first, -7.66% for the second.

Going from `CC(Cn1cccn1)NCc1csc(-c2ccc(F)cc2)n1` (centres undefined) to `COCC1CN(C(=O)Cc2ccc(F)cc2)Cc2ccnn2C1` (centres undefined), the cytotoxicity at 70.5 h falls from 5.69% to -5.52%.

First: OC1(CNC2CCN(c3ccccn3)CC2)CCc2ccccc21 (centres undefined)
Second: O=C1CC(c2ccccc2)C2(CCN(C(=O)c3cnccn3)CC2)N1 (centres undefined)
The cytotoxicity at 70.5 h of the first is higher: -6.83% for the first, -8.06% for the second.

Compared with `O=C(COCc1ccccc1Cl)N1CCN(c2ncccn2)CC1`, `Fc1ccccc1CN1C[C@@H]2OCCN(c3ncccn3)[C@@H]2C1` is lower in cytotoxicity at 70.5 h: 6.02% for the first, -13.2% for the second.

Going from `CO[C@H]1CCN(S(=O)(=O)c2cccs2)[C@H]1Cc1ccncc1` to `O=C1CC(c2ccncc2)C2(CCN(C(=O)c3ccnnc3)CC2)N1` (centres undefined), the cytotoxicity at 70.5 h falls from -6.14% to -8.48%.

First: Cn1ncc2c1C(COCC1CC1)CN(Cc1ccco1)C2 (centres undefined)
Second: CCn1cc2c(n1)CN(Cc1ccc(C)o1)CC2COCC1CC1 (centres undefined)
The cytotoxicity at 70.5 h of the first is higher: 4.98% for the first, -5.09% for the second.

Going from `CN(C)C(=O)[C@H]1C[C@H]2OCC[C@H]2N(Cc2ccccn2)C1` to `CN(C)C(=O)[C@H]1C[C@H]2OCC[C@H]2N(Cc2ccc3c(c2)OCO3)C1`, the cytotoxicity at 70.5 h rises from -2.93% to 0.648%.

Compared with `Cc1noc([C@H]2C[C@H]3OCC[C@H]3N(Cc3ccncc3)C2)n1`, `Cc1noc([C@H]2C[C@H]3OCC[C@H]3N(Cc3scnc3C)C2)n1` is higher in cytotoxicity at 70.5 h: -7.52% for the first, -7.11% for the second.

Compared with `c1ccc(CN2CCc3ncnc(-c4cncnc4)c3CC2)nc1`, `c1ccc(CN2CCn3c(Cn4cncn4)cnc3C2)nc1` is lower in cytotoxicity at 70.5 h: 21.8% for the first, -10.2% for the second.

First: O=C(N1CCCC1)N1CCn2c(Cn3cccn3)cnc2C1
Second: CCOCC(=O)N1Cc2nccn2CC(CN2CCCC2)C1 (centres undefined)
The cytotoxicity at 70.5 h of the first is higher: -0.231% for the first, -11.5% for the second.

Going from `O=C1CC(c2cccnc2)C2(CCN(C(=O)N3CCOCC3)CC2)N1` (centres undefined) to `O=C(C1CCCN(C2CCOCC2)C1)N1CCc2ncccc2C1` (centres undefined), the cytotoxicity at 70.5 h rises from -12.4% to -4.26%.

Going from `Cc1nc(CN2C(=O)CC[C@@H]3[C@H]2CCN3C(=O)C2CCOCC2)cs1` to `Cc1nc(CN2C(=O)CC[C@@H]3[C@H]2CCN3C(=O)c2ccno2)cs1`, the cytotoxicity at 70.5 h rises from -7.34% to -1.87%.

Going from `CN(C)C(=O)N1CCn2cc(CNC(=O)CC3CC3)nc2C1` to `Cc1cccc(CN2CCn3cc(CNC(=O)CC4CC4)nc3C2)n1`, the cytotoxicity at 70.5 h falls from -0.867% to -5.24%.

First: O=C(c1ccncc1)N1CCc2c(COCC3CC3)cncc2C1
Second: O=C(c1cnccn1)N1CCc2c(COCC3CC3)cncc2C1
The cytotoxicity at 70.5 h of the first is higher: 0.493% for the first, -7.37% for the second.

Compared with `Cc1noc(C)c1CN1CC[C@H](OCC2CC2)[C@@H](Cc2ccccc2)C1`, `COCC1CN(Cc2c(C)noc2C)Cc2ccnn2C1` (centres undefined) is lower in cytotoxicity at 70.5 h: 3.46% for the first, -9.74% for the second.

Compared with `c1ccc(CN2C[C@@H]3OCCN(c4cccnc4)[C@@H]3C2)nc1`, `c1cnc(N2CCO[C@H]3CN(Cc4ccsc4)C[C@H]32)nc1` is lower in cytotoxicity at 70.5 h: -12.2% for the first, -14.2% for the second.

First: Cn1ccnc1CN1C[C@@H]2OCCN(c3ncccn3)[C@@H]2C1
Second: Cn1cncc1CN1C[C@@H]2OCCN(c3ncccn3)[C@@H]2C1
The cytotoxicity at 70.5 h of the first is lower: -16.1% for the first, -9.56% for the second.

Going from `O=C(c1ccco1)N1CCO[C@@H]2CNCC[C@@H]2C1` to `O=C([C@H]1C[C@H]2OCC[C@H]2N(Cc2ccoc2)C1)N1CCCO1`, the cytotoxicity at 70.5 h falls from 32.1% to -5.69%.

First: Cc1nc(N(C)C)nc(N(C)CCc2ccncc2)c1C
Second: CCCc1cnc(C)nc1NC(C)Cc1cnccn1 (centres undefined)
The cytotoxicity at 70.5 h of the first is lower: -15.2% for the first, -5.97% for the second.

Going from `Cn1ccc2c(-c3cc(N)nc(N4CCOCC4)n3)ccnc21` to `CCc1nc2c(c(N3CCOCC3)n1)CCN(C(=O)c1ccon1)CC2`, the cytotoxicity at 70.5 h rises from 1.46% to 6.74%.

Compared with `CCCc1nnc(N2CCN(c3ccccc3F)CC2)o1`, `Cc1cccnc1CN1CCN(c2noc(-c3ccccc3)n2)CC1` is lower in cytotoxicity at 70.5 h: 13.5% for the first, 7.94% for the second.

First: Nc1nc(CCCNC(=O)C2CCCN(Cc3ccco3)C2)cs1 (centres undefined)
Second: CCCc1nc(C(=O)NCCN2CCC(c3ccccc3C)C2)cs1 (centres undefined)
The cytotoxicity at 70.5 h of the first is higher: 8.32% for the first, 0.739% for the second.

First: CC(C)Nc1ccnc(N2Cc3cnc(C(C)(C)C)nc3C2)n1
Second: c1cnc(NCc2cncc3c2CCN(Cc2cccnc2)C3)nc1
The cytotoxicity at 70.5 h of the first is higher: 17.3% for the first, -5.03% for the second.

Going from `CC(C)n1cnnc1CN1C(=O)CCc2ccccc21` to `CC(C)CN1C(=O)C[C@@H]2[C@@H]1CCN2Cc1cccc(C#N)c1`, the cytotoxicity at 70.5 h rises from -1.8% to 2.48%.

Going from `Cc1nn(C)c(C)c1C(C)NC(=O)c1cc(CN2CCC(O)CC2)on1` (centres undefined) to `CN(C)C(=O)N1Cc2ncn(C)c2C(COCC2CCOCC2)C1` (centres undefined), the cytotoxicity at 70.5 h falls from -5.78% to -11.9%.

Compared with `O=C(c1cccc(C2CCNC2)c1)N1CCC(N2CCC(O)CC2)CC1` (centres undefined), `O=C1CO[C@@H]2CN(C3CCOCC3)C[C@H]2N1Cc1cccc(F)c1` is lower in cytotoxicity at 70.5 h: 44.2% for the first, -6.55% for the second.

Going from `CC(C)[C@@H]1CN(C(=O)NCc2ccco2)C[C@H]1NS(=O)(=O)N(C)C` to `CNc1nc(C(=O)N2C[C@H]3CC[C@@H]2CN(S(C)(=O)=O)C3)cs1`, the cytotoxicity at 70.5 h falls from 17.9% to 12%.

Compared with `COc1ccccc1OCCn1c(C)c(C)oc1=O`, `COc1cc(F)ccc1C(C(=O)O)N(C)Cc1ccon1` (centres undefined) is lower in cytotoxicity at 70.5 h: 23.3% for the first, -7.03% for the second.

Compared with `Cc1cc(C)nc(NC2CC(=O)N(C)C2)n1` (centres undefined), `Cc1cccc(CN2C(=O)CC[C@H]3[C@@H]2CCN3CC(=O)N(C)C)n1` is higher in cytotoxicity at 70.5 h: -8.75% for the first, -7.14% for the second.

Going from `Cc1ncsc1C(=O)N1CC[C@@]2(O)CCN(C(=O)N3CCCC3)C[C@H]2C1` to `c1csc(CN2CCCn3cnc(CN4CCCC4)c3C2)c1`, the cytotoxicity at 70.5 h falls from 12.8% to -2.7%.

Going from `Cc1cc2c(=O)n(CCSc3cnn[nH]3)cnc2s1` to `c1csc(CN2CCc3c(CNc4nncs4)cncc3C2)c1`, the cytotoxicity at 70.5 h rises from -12.3% to -9.12%.

Compared with `CCC(C(=O)N1CCS(=O)(=O)CC1)n1cccn1` (centres undefined), `Cc1cccc2c1nc(CCO)n2-c1ccc(C(=O)N2CCCC2)o1` is higher in cytotoxicity at 70.5 h: -4.81% for the first, 12.9% for the second.

`CCNC(=O)[C@@H]1C[C@H](N)CN1Cc1ccc(Sc2ccc(C)cc2)o1` and `COCCNC(=O)C1CN(Cc2cccnc2)Cc2ccnn2C1` (centres undefined) are the same in cytotoxicity at 70.5 h: -13.8% for the first, -13.8% for the second.

First: COC1COC2(CCN(c3ccc(C#N)cc3)CC2)C1 (centres undefined)
Second: CN(C)C(=O)COC1COC2(CCN(c3cccc(F)c3)CC2)C1 (centres undefined)
The cytotoxicity at 70.5 h of the first is lower: -5.93% for the first, 2.89% for the second.

Compared with `Cc1nc(CN2CCc3ncnc(C4CC4)c3CC2)cs1`, `O=C(c1ccncc1F)N1CCc2ncnc(C3CC3)c2CC1` is higher in cytotoxicity at 70.5 h: -2.07% for the first, -1.77% for the second.

Going from `Cc1noc([C@@H]2C[C@H]3OCC[C@H]3N(CC3CCCC3)C2)n1` to `Cn1cc(CN2C[C@@H]3OCCN(c4ncccn4)[C@@H]3C2)cn1`, the cytotoxicity at 70.5 h rises from -10.4% to 1.07%.

Going from `Cc1cc(CN2C[C@@H]3COC[C@]3(CNS(C)(=O)=O)C2)no1` to `CCS(=O)(=O)NC[C@]12COC[C@H]1CN(Cc1sccc1C)C2`, the cytotoxicity at 70.5 h falls from 1.21% to -0.717%.

First: COCCN1C(=O)CC[C@@H]2[C@H]1CCN2Cc1ccc(C)s1
Second: Cc1cccc(CN2C(=O)CC[C@@H]3[C@H]2CCN3C(=O)c2ccsc2)n1
The cytotoxicity at 70.5 h of the first is higher: -11.5% for the first, -12.3% for the second.

First: O=C(c1ccsc1)N1C[C@@H]2CCN(c3cccnc3)C[C@@H]2C1
Second: O=C(c1ccc(O)cc1)N1C[C@@H]2CCN(c3cccnc3)C[C@@H]2C1
The cytotoxicity at 70.5 h of the first is lower: -6.89% for the first, 22.7% for the second.

Compared with `CCn1cc2c(n1)CN(Cc1sccc1C)CC2COCC1CC1` (centres undefined), `c1ccc(COC[C@@H]2CCC[C@]23CN(Cc2nccs2)CCO3)nc1` is higher in cytotoxicity at 70.5 h: -7.71% for the first, 5.78% for the second.

Compared with `CN1CC(=O)N(c2cccc(F)c2)CC12CCN(CCO)C2` (centres undefined), `O=C1[C@H]2CN(Cc3ccoc3)C[C@H]2CN1Cc1cccnc1` is lower in cytotoxicity at 70.5 h: -5.44% for the first, -11.8% for the second.

With `CN(Cc1cccnc1)CC1CN(C(=O)C2CC2)Cc2nccn2C1` (centres undefined) the cytotoxicity at 70.5 h was -7.48%.
